Results as given in PubChem BioAssay AID1259411 (Chemical Carcinogenesis Research Information System (CCRIS), 2018).
Calls of active or inactive are those of the source. No rule for the calls is given here.

System: rodent carcinogenicity bioassays, tumor incidence
Assay: CCRIS carcinogenicity studies
Method in brief: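 Archive of carcinogenicity, mutagenicity, tumor promotion and tumor inhibition results drawn from journals, NCI reports and other sources, expert-reviewed; covers 1985-2011 and is no longer updated.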

O=S(=O)(O)c1c(N=Nc2c(O)ccc3ccccc23)ccc2ccccc12
carcinogen call (Species: MOUSE, Strain/Sex: ICR/FEMALE, Route: DERMAL, Dose: 0, 1 MG IN 0.1 ML DISTILLED WATER 2/WK FOR A MEAN TOTAL DOSE OF 128.1 MG (STUDY DURATION: 18 MO)): inactive; negative | carcinogen call (Species: MOUSE, Strain/Sex: ICR/MALE, Route: DERMAL, Dose: 0, 1 MG IN 0.1 ML DISTILLED WATER 2/WK FOR A MEAN TOTAL DOSE OF 128.1 MG (STUDY DURATION: 18 MO)): inactive; negative

O=C1NS(=O)(=O)c2ccccc21
carcinogen call (Species: MONKEY, Strain/Sex: AFRICAN GREEN, RHESUS, CYNOMOLGUS, HYBRID/MALE, FEMALE, Route: ORAL, Dose: 0, 25 MG/KG BW IN FOOD 5 D/WK FOR DURATION OF STUDY (STUDY DURATION: 24 YR)): inactive; negative | carcinogen call (Species: RAT, Strain/Sex: ANALBUMINEMIC/MALE, Route: ORAL, Dose: 0, 5% IN DIET FOR 80 WK (STUDY DURATION: 80 WK)): inactive; negative | carcinogen call (Species: RAT, Strain/Sex: SPRAGUE-DAWLEY/MALE, Route: ORAL, Dose: 0, 5% IN DIET FOR 80 WK (STUDY DURATION: 80 WK)): inactive; negative

C[C@]12C=CC(=O)C=C1CC[C@@H]1[C@@H]2C(=O)C[C@@]2(C)[C@H]1CC[C@]2(O)C(=O)CO
carcinogen call (Species: MOUSE, Strain/Sex: ICR/FEMALE, Route: ORAL, Dose: 0, 0.25, 0.5, 1, 5 MG/KG/D FOR 18 MO (STUDY DURATION: 18 MO), Dose: 0, 0.25, 0.5, 1, 5 MG/KG/D FOR 18 MO (STUDY DURATION: 18 MO)): inactive; negative | carcinogen call (Species: MOUSE, Strain/Sex: ICR/MALE, Route: ORAL, Dose: 0, 0.25, 0.5, 1, 5 MG/KG/D FOR 18 MO (STUDY DURATION: 18 MO), Dose: 0, 0.25, 0.5, 1, 5 MG/KG/D FOR 18 MO (STUDY DURATION: 18 MO)): inactive; negative

Cc1ccc(S(=O)(=O)Oc2ccc(N=Nc3ccc(-c4ccc(N=Nc5c(O)ccc6cc(S(=O)(=O)O)cc(S(=O)(=O)O)c56)c(C)c4)cc3C)cc2)cc1
carcinogen call (Species: RAT, Strain/Sex: F344/FEMALE, Route: ORAL, Dose: 0, 150, 300, 600 PPM IN DRINKING WATER 7 D/WK FOR 104 WK (STUDY DURATION: 104 WK), Dose: 0, 150, 300, 600 PPM IN DRINKING WATER 7 D/WK FOR 104 WK (STUDY DURATION: 104 WK), Tumor Site: Type of Lesion: CLITORAL GLAND: ADENOMA OR CARCINOMA, LIVER: NEOPLASTIC NODULE OR HEPATOCELLULAR CARCINOMA, LUNG: ALVEOLAR/BRONCHIOLAR A, Tumor Site: Type of Lesion: CLITORAL GLAND: ADENOMA OR CARCINOMA, LIVER: NEOPLASTIC NODULE OR HEPATOCELLULAR CARCINOMA, LUNG: ALVEOLAR/BRONCHIOLAR A): active; positive | carcinogen call (Species: RAT, Strain/Sex: F344/MALE, Route: ORAL, Dose: 0, 70, 150, 300 PPM IN DRINKING WATER 7 D/WK FOR 104 WK (STUDY DURATION: 104 WK), Dose: 0, 70, 150, 300 PPM IN DRINKING WATER 7 D/WK FOR 104 WK (STUDY DURATION: 104 WK), Tumor Site: Type of Lesion: LIVER: NEOPLASTIC NODULE OR HEPATOCELLULAR CARCINOMA, SKIN: BASAL CELL ADENOMA, BASAL CELL CARCINOMA, KERATOACANTHOMA, S): active; positive

c1ccc2c(c1)ccc1nc3c(ccc4ccccc43)cc12
carcinogen call (Species: MOUSE, Route: DERMAL, Tumor Site: Type of Lesion: INTEGUMENTARY SYSTEM (SKIN)): active; positive | carcinogen call (Species: MOUSE, Route: SUBCUTANEOUS, Tumor Site: Type of Lesion: INJECTION SITE, LUNG): active; positive | carcinogen call (Species: RAT, Strain/Sex: OSBORNE-MENDEL/FEMALE, Route: LUNG IMPLANT, Dose: 0, 0.1, 0.3, 1.0 MG IN BEESWAX/TRICAPRYLIN (STUDY DURATION: LIFETIME), Dose: 0, 0.1, 0.3, 1.0 MG IN BEESWAX/TRICAPRYLIN (STUDY DURATION: LIFETIME), Tumor Site: Type of Lesion: LUNG: EPIDERMOID CARCINOMA): active; positive

CCCCCCCCCCN(C)N=O
carcinogen call (Species: RAT, Strain/Sex: F344/MALE, Route: GAVAGE, Dose: 0, 108 MG/ML IN CORN OIL 2/WK FOR 30 WK, STUDY DURATION: 110 WK, Dose: 0, 108 MG/ML IN CORN OIL 2/WK FOR 30 WK, STUDY DURATION: 110 WK, Tumor Site: Type of Lesion: LUNG: ADENOCARCINOMA, BLADDER): active; positive

O[C@@H]1[C@@H]2O[C@@H]2c2c(ccc3c2ccc2ccccc23)[C@H]1O
carcinogen call (Species: MOUSE, Strain/Sex: ICR/FEMALE, Route: INTRAPERITONEAL, Dose: 0, 8 NMOL IN 5 µL DMSO ON D 1, 16 NMOL IN 10 µL ON D 8 AND 32 NMOL IN 20 µL ON D 15 OF LIFE (STUDY DURATION: 35 WK)): inactive; negative | carcinogen call (Species: MOUSE, Strain/Sex: ICR/FEMALE, Route: INTRAPERITONEAL, Dose: 0, 500 NMOL (TOTAL DOSE) ADMINISTERED IN DOSES OF 1/7, 2/7, AND 4/7 ON DAYS 1, 7, AND 15 OF LIFE, RESPECTIVELY (STUDY DU, Tumor Site: Type of Lesion: LUNG: TUMOR): active; positive | carcinogen call (Species: MOUSE, Strain/Sex: ICR/MALE, Route: INTRAPERITONEAL, Dose: 0, 8 NMOL IN 5 µL DMSO ON D 1, 16 NMOL IN 10 µL ON D 8 AND 32 NMOL IN 20 µL ON D 15 OF LIFE (STUDY DURATION: 35 WK)): inactive; negative | carcinogen call (Species: MOUSE, Strain/Sex: ICR/MALE, Route: INTRAPERITONEAL, Dose: 0, 500 NMOL (TOTAL DOSE) ADMINISTERED IN DOSES OF 1/7, 2/7, AND 4/7 ON DAYS 1, 7 AND 15 OF LIFE , RESPECTIVELY (STUDY DU, Tumor Site: Type of Lesion: LUNG: TUMOR): active; positive

c1ccoc1
carcinogen call (Species: MOUSE, Strain/Sex: B6C3F1/FEMALE, Route: GAVAGE, Dose: 0, 8, 15 MG/KG IN CORN OIL 5 D/WK FOR 104 WK (STUDY DURATION: 105 WK), Dose: 0, 8, 15 MG/KG IN CORN OIL 5 D/WK FOR 104 WK (STUDY DURATION: 105 WK), Tumor Site: Type of Lesion: ADRENAL MEDULLA: BENIGN PHEOCHROMOCYTOMA, LIVER: HEPATOCELLULAR ADENOMA, HEPATOCELLULAR CARCINOMA): active; positive | carcinogen call (Species: MOUSE, Strain/Sex: B6C3F1/MALE, Route: GAVAGE, Dose: 0, 8, 15 MG/KG IN CORN OIL 5 D/WK FOR 104 WK (STUDY DURATION: 105 WK), Dose: 0, 8, 15 MG/KG IN CORN OIL 5 D/WK FOR 104 WK (STUDY DURATION: 105 WK), Tumor Site: Type of Lesion: ADRENAL MEDULLA: BENIGN PHEOCHROMOCYTOMA, LIVER: HEPATOCELLULAR ADENOMA, HEPATOCELLULAR CARCINOMA): active; positive | carcinogen call (Species: MOUSE, Strain/Sex: B6C3F1/MALE, Route: INTRAPERITONEAL, Dose: 0, 200 MG/KG BW ONCE EACH ON POSTNATAL DAYS 3, 6, 9, 12, 15 AND 18 (STUDY DURATION: 95 WK), Tumor Site: Type of Lesion: LIVER: ADENOMA OR CARCINOMA): active; positive | carcinogen call (Species: MOUSE, Strain/Sex: B6C3F1/MALE, Route: INTRAPERITONEAL, Dose: 0, 400 MG/KG BW ONCE ON POSTNATAL DAY 15 (STUDY DURATION: 95 WK)): inactive; negative | carcinogen call (Species: RAT, Strain/Sex: B6C3F1/FEMALE, Route: GAVAGE, Dose: 0, 2, 4, 8 MG/KG IN CORN OIL 5 D/WK FOR 103 WK (STUDY DURATION: 104 WK), Dose: 0, 2, 4, 8 MG/KG IN CORN OIL 5 D/WK FOR 103 WK (STUDY DURATION: 104 WK), Tumor Site: Type of Lesion: LIVER: CHOLANGIOCARCINOMA, HEPATOCELLULAR ADENOMA OR CARCINOMA, HEMATOPOIETIC SYSTEM: MONONUCLEAR CELL LEUKEMIA): active; positive | carcinogen call (Species: RAT, Strain/Sex: F344/MALE, Route: GAVAGE, Dose: 0, 2, 4, 8 MG/KG IN CORN OIL 5 D/WK FOR 103 WK (STUDY DURATION: 104 WK), Dose: 0, 2, 4, 8 MG/KG IN CORN OIL 5 D/WK FOR 103 WK (STUDY DURATION: 104 WK), Tumor Site: Type of Lesion: LIVER:CHOLANGIOCARCINOMA, HEPATOCELLULAR ADENOMA, HEPATOCELLULAR CARCINOMA, HEMATOPOIETIC SYSTEM: MONONUCLEAR CELL LEUKE): active; positive
